Test results reported in US20230040770A1, “HETEROCYCLIC COMPOUND AND USE THEREOF” (TAKEDA PHARMACEUTICAL COMPANY LIMITED, priority 2019, published 2023).

Target: T1, human orexin type 2 receptor (Homo sapiens, UniProt O43614)
T1 construct: expressed in transfected cells
T1 sequence (O43614 1-444): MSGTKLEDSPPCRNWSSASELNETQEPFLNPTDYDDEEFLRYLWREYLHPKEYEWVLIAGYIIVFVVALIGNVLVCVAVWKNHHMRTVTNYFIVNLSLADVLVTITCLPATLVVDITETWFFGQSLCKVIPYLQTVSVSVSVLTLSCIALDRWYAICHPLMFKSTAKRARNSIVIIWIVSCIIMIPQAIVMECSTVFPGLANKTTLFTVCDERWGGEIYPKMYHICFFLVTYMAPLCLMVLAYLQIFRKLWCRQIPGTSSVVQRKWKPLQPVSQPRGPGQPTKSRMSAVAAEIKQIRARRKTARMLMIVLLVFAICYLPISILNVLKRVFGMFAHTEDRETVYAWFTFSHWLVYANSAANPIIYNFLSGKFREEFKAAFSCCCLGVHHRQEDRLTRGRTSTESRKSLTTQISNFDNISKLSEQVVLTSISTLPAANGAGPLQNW
Experiment: Measurement of orexin type 2 receptor agonist activity (calcium indicator fluorescence, CHO cells forcibly expressing human OX2 receptor)
Format: cell-based
Conditions: compound at 3 μM; 0% = DMSO, 100% = orexin A (human) 10 nM
Summary of the method: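 Agonist response normalised between vehicle (0%) and orexin A at 10 nM final (100%), from kinetic Fluo-4 calcium signals recorded for about 2 min after compound addition. Cells: stable human OX2R CHO clone, dye-loaded 30 min at 37 °C plus 30 min at room temperature.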

CCS(=O)(=O)N[C@@H]1[C@H](Cc2cccc(-c3cccc(C)c3)c2F)N(C(=O)C2(O)CCC2)CC1(F)F [Example 275, N-[(2S,3R)-4,4-difluoro-2-[(2-fluoro-3′-methyl[1,1′-biphenyl]-3-yl)methyl]-1-(1-hydroxycyclobutane-1-carbonyl)pyrrolidin-3-yl]ethanesulfonamide]
OX2R agonist activity (3 μM, %): 85%

CCS(=O)(=O)N[C@@H]1[C@H](Cc2cccc(-c3ccccc3)c2)N(C(=O)C2CCO2)CC1(F)F (stereo partly drawn) [Example 51, N-[(2S,3R)-2-[([1,1′-biphenyl]-3-yl)methyl]-4,4-difluoro-1-(oxetane-2-carbonyl)pyrrolidin-3-yl]ethanesulfonamide]
OX2R agonist activity (3 μM, %): 99%

CCS(=O)(=O)N[C@@H]1[C@H](Cc2cccc(-c3cccc(Cl)c3)c2F)N(C(=O)C2CCO2)CC1(F)F (stereo partly drawn) [Example 267, N-[(2S,3R)-2-[(3′-chloro-2-fluoro[1,1′-biphenyl]-3-yl)methyl]-4,4-difluoro-1-(oxetane-2-carbonyl)pyrrolidin-3-yl]ethanesulfonamide]
OX2R agonist activity (3 μM, %): 92%

CCS(=O)(=O)N[C@@H]1[C@H](Cc2cccc(-c3cccc(F)c3F)c2F)N(C(=O)C2CC(F)C2)CC1(F)F (stereo partly drawn) [Example 349, N-{(2S,3R)-4,4-difluoro-1-(3-fluorocyclobutane-1-carbonyl)-2-[(2,2′,3′-trifluoro[1,1′-biphenyl]-3-yl)methyl]pyrrolidin-3-yl}ethanesulfonamide]
OX2R agonist activity (3 μM, %): 98%

CCS(=O)(=O)N[C@@H]1[C@H](Cc2cccc(-c3ccc(F)c(F)c3F)c2F)N(C(=O)C2CCO2)CC1(F)F (stereo partly drawn) [Example 471, N-{(2S,3R)-4,4-difluoro-1-(oxetane-2-carbonyl)-2-[(2,2′,3′,4′-tetrafluoro[1,1′-biphenyl]-3-yl)methyl]pyrrolidin-3-yl}ethanesulfonamide]
OX2R agonist activity (3 μM, %): 94%

O=C(C1CCO1)N1C[C@H](F)[C@H](NS(=O)(=O)C2CC2)[C@@H]1Cc1cccc(-c2cccc(Cl)c2)c1F (stereo partly drawn) [Example 485, N-[(2S,3R,4S)-2-[(3′-chloro-2-fluoro[1,1′-biphenyl]-3-yl)methyl]-4-fluoro-1-(oxetane-2-carbonyl)pyrrolidin-3-yl]cyclopropanesulfonamide]
OX2R agonist activity (3 μM, %): 93%

Cc1cccc(-c2cccc(C[C@H]3[C@@H](NS(=O)(=O)N(C)C)C(F)(F)CN3C(=O)C3CCO3)c2F)c1 (stereo partly drawn) [Example 434, N′-[(2S,3R)-4,4-difluoro-2-[(2-fluoro-3′-methyl[1,1′-biphenyl]-3-yl)methyl]-1-(oxetane-2-carbonyl)pyrrolidin-3-yl]-N,N-dimethylsulfuric diamide]
OX2R agonist activity (3 μM, %): 101%

CC(C)(O)C(=O)N1C[C@H](F)[C@H](NS(C)(=O)=O)[C@@H]1Cc1cccc(-c2cccc(Cl)c2F)c1F [Example 389, N-[(2S,3R,4S)-2-[(3′-chloro-2,2′-difluoro[1,1′-biphenyl]-3-yl)methyl]-4-fluoro-1-(2-hydroxy-2-methylpropanoyl)pyrrolidin-3-yl]methanesulfonamide]
OX2R agonist activity (3 μM, %): 89%

CCS(=O)(=O)N[C@H]1[C@@H](F)CN(C(=O)C23CC(C2)C3)[C@H]1Cc1cccc(-c2cc(F)cc(F)c2)c1F [Example 365, N-{(2S,3R,4S)-1-(bicyclo[1.1.1]pentane-1-carbonyl)-4-fluoro-2-[(2,3′,5′-trifluoro[1,1′-biphenyl]-3-yl)methyl]pyrrolidin-3-yl}ethanesulfonamide]
OX2R agonist activity (3 μM, %): 93%

CCS(=O)(=O)N[C@H]1[C@@H](F)CN(C(=O)N2CCC2)[C@H]1Cc1cccc(-c2cccc(F)c2)c1F [Example 211, N-{(2S,3R,4S)-1-(azetidine-1-carbonyl)-2-[(2,3′-difluoro[1,1′-biphenyl]-3-yl)methyl]-4-fluoropyrrolidin-3-yl}ethanesulfonamide]
OX2R agonist activity (3 μM, %): 94%

Cc1cccc(-c2cccc(C[C@H]3[C@@H](NS(=O)(=O)C4CC4)[C@@H](F)CN3C(=O)N(C)C)c2F)c1 [Example 538, (2S,3R,4S)-3-[(cyclopropanesulfonyl)amino]-4-fluoro-2-[(2-fluoro-3′-methyl[1,1′-biphenyl]-3-yl)methyl]-N,N-dimethylpyrrolidine-1-carboxamide]
OX2R agonist activity (3 μM, %): 106%

Cc1cccc(-c2cccc(C[C@H]3[C@@H](NS(=O)(=O)N(C)C)C(F)(F)CN3C(=O)N(C)C)c2F)c1 [Example 442, (2S,3R)-3-[(dimethylsulfamoyl)amino]-4,4-difluoro-2-[(2-fluoro-3′-methyl[1,1′-biphenyl]-3-yl)methyl]-N,N-dimethylpyrrolidine-1-carboxamide]
OX2R agonist activity (3 μM, %): 96%

CCS(=O)(=O)N[C@@H]1[C@H](Cc2cccc(-c3ccccc3)c2F)N(C(=O)N2CCC2)CC1(F)F [Example 228, N-{(2S,3R)-1-(azetidine-1-carbonyl)-4,4-difluoro-2-[(2-fluoro[1,1′-biphenyl]-3-yl)methyl]pyrrolidin-3-yl}ethanesulfonamide]
OX2R agonist activity (3 μM, %): 99%

CCS(=O)(=O)N[C@H]1[C@@H](F)CN(C(=O)C2CCO2)[C@H]1Cc1cccc(-c2cccc(F)c2)c1F (stereo partly drawn) [Example 216, N-[(2S,3R,4S)-2-[(2,3′-difluoro[1,1′-biphenyl]-3-yl)methyl]-4-fluoro-1-(oxetane-2-carbonyl)pyrrolidin-3-yl]ethanesulfonamide]
OX2R agonist activity (3 μM, %): 95%

CS(=O)(=O)N[C@@H]1[C@H](Cc2cccc(-c3cccc(F)c3)c2F)N(C(=O)C2CC(F)C2)CC1(F)F (stereo partly drawn) [Example 392, N-[(2S,3R)-2-[(2,3′-difluoro[1,1′-biphenyl]-3-yl)methyl]-4,4-difluoro-1-(3-fluorocyclobutane-1-carbonyl)pyrrolidin-3-yl]methanesulfonamide]
OX2R agonist activity (3 μM, %): 97%

CCS(=O)(=O)N[C@H]1[C@@H](F)CN(C(=O)C2CCO2)[C@H]1Cc1cccc(-c2cccc(F)c2F)c1F (stereo partly drawn) [Example 307, N-{(2S,3R,4S)-4-fluoro-1-(oxetane-2-carbonyl)-2-[(2,2′,3′-trifluoro[1,1′-biphenyl]-3-yl)methyl]pyrrolidin-3-yl}ethanesulfonamide]
OX2R agonist activity (3 μM, %): 100%

CS(=O)(=O)N[C@@H]1[C@H](Cc2cccc(-c3cc(F)cc(F)c3)c2F)N(C(=O)[C@@H]2CCO2)CC1(F)F [Example 92, N-{(2S,3R)-4,4-difluoro-1-((2S)-oxetane-2-carbonyl)-2-[(2,3′,5′-trifluoro[1,1′-biphenyl]-3-yl)methyl]pyrrolidin-3-yl}methanesulfonamide]
OX2R agonist activity (3 μM, %): 99%

O=C(C1CCO1)N1CC(F)(F)[C@H](NS(=O)(=O)C2CC2)[C@@H]1Cc1cccc(-c2cc(F)cc(F)c2)c1F (stereo partly drawn) [Example 162, N-{(2S,3R)-4,4-difluoro-1-(oxetane-2-carbonyl)-2-[(2,3′,5′-trifluoro[1,1′-biphenyl]-3-yl)methyl]pyrrolidin-3-yl}cyclopropanesulfonamide]
OX2R agonist activity (3 μM, %): 92%

CN(C)S(=O)(=O)N[C@@H]1[C@H](Cc2cccc(-c3ccccc3)c2F)N(C(=O)C2(O)CCC2)CC1(F)F [Example 145, N′-[(2S,3R)-4,4-difluoro-2-[(2-fluoro[1,1′-biphenyl]-3-yl)methyl]-1-(1-hydroxycyclobutane-1-carbonyl)pyrrolidin-3-yl]-N,N-dimethylsulfuric diamide]
OX2R agonist activity (3 μM, %): 99%

CCS(=O)(=O)N[C@@H]1[C@H](Cc2cccc(-c3cccc(C)c3F)c2F)N(C(=O)C2(O)CCC2)CC1(F)F [Example 276, N-[(2S,3R)-2-[(2,2′-difluoro-3′-methyl[1,1′-biphenyl]-3-yl)methyl]-4,4-difluoro-1-(1-hydroxycyclobutane-1-carbonyl)pyrrolidin-3-yl]ethanesulfonamide]
OX2R agonist activity (3 μM, %): 88%

CCS(=O)(=O)N[C@H]1[C@@H](F)CN(C(=O)C(C)(C)O)[C@H]1Cc1cccc(-c2cc(F)cc(Cl)c2)c1F [Example 345, N-[(2S,3R,4S)-2-[(3′-chloro-2,5′-difluoro[1,1′-biphenyl]-3-yl)methyl]-4-fluoro-1-(2-hydroxy-2-methylpropanoyl)pyrrolidin-3-yl]ethanesulfonamide]
OX2R agonist activity (3 μM, %): 92%

CCS(=O)(=O)N[C@@H]1[C@H](Cc2cccc(-c3cc(F)c(F)cc3F)c2F)N(C(=O)C2CCO2)CC1(F)F (stereo partly drawn) [Example 469, N-{(2S,3R)-4,4-difluroo-1-(oxetane-2-carbonyl)-2-[(2,2′,4′5′-tetrafluoro[1,1′-biphenyl]-3-yl)methyl]pyrrolidin-3-yl}ethanesulfonamide]
OX2R agonist activity (3 μM, %): 91%

CCS(=O)(=O)N[C@@H]1[C@H](Cc2cccc(-c3cc(F)ccc3F)c2F)N(C(=O)C(C)C)CC1(F)F [Example 147, N-{(2S,3R)-4,4-difluoro-1-(2-methylpropanoyl)-2-[(2,2′,5′-trifluoro[1,1′-biphenyl]-3-yl)methyl]pyrrolidin-3-yl}ethanesulfonamide]
OX2R agonist activity (3 μM, %): 91%

CCS(=O)(=O)N[C@H]1[C@@H](F)CN(C(=O)C2CCO2)[C@H]1Cc1cccc(-c2cc(C)cc(F)c2)c1F (stereo partly drawn) [Example 501, N-[(2S,3R,4S)-2-[(2,3′-difluoro-5′-methyl[1,1′-biphenyl]-3-yl)methyl]-4-fluoro-1-(oxetane-2-carbonyl)pyrrolidin-3-yl]ethanesulfonamide]
OX2R agonist activity (3 μM, %): 96%
